Values of other authors, collected in patent publication US20250262358A1, “SURGICAL SYSTEM AND METHODS OF USE” (MEDTRONIC, INC., priority 2021, published 2025).

System: myofibroblast formation
Conditions: animal studies of capsular contracture with breast implants; Ajmal et al. (2003)

In the case of O=S(=O)([O-])CCS.[Na+] [MESNA, sodium 2-mercaptoethane sulfonate], the myofibroblast formation is listed as “diminish myofibroblast formation”.
